Key:
[1] = Light sensitivity of purified fractions (sunlight, HPLC / 1H NMR); assay type: physicochemical; settings: sunlight for 90 min
Description: The chloroform extract was dissolved in 50% (v/v) aqueous and purified by HPLC. Experiments were conducted so as to exclude light from samples. Hypersil reversed-phase C18 (250×7 mm) or Spherisorb ODS (2) reversed-phase columns (250×4.6 mm) were equilibrated with 30% (v/v) aqueous acetonitrile at a flow rate pf 2 mL min^−1 and 1 mL min^−1, respectively. Elution was performed using 30% to 36% aqueous acetonitrile linear gradient at the same flow rates over 8 min. Fractions were monitored at 320 nm and collected manually. The fractions were freeze dried and stored at −80° C. for further analyses. Each fraction was re-dissolved in 50% (v/v) aqueous acetonitrile, re-injected and re-purified using the same conditions to remove impurities from other fractions. To investigate the light sensitivity of the compounds, purified fractions were exposed to sunlight for 90 min after dissolving 50% (v/v) aqueous and analysed by HLPC.

[2] = Heat stability judged by HPLC; settings: 60° C. for 2 h
porcine carotid artery = assay: Oxygen consumption of porcine carotid artery rings (Clark oxygen electrode); settings: concentration of 4-methyl-3-vinylmaleimide not determined
Description: Porcine carotid artery were collected from an abattoir within 30 minutes of death, rinsed and immersed in PSS at 4° C., and immediately transported to the laboratory. Arteries were then trimmed of excess connective tissue and adventitia to be stored in PSS at 4° C. until use. The PSS was changed every 12 hours and the vessels were kept for up to 4 days. The PSS contained the following: 118 mmol/L sodium chloride, 25 mmol/L sodium hydrogen carbonate, 5.76 mmol/L potassium chloride, 2.5 mmol/L calcium chloride, 1.2 mmol/L magnesium sulphate, 0.5 mmol/L monobasic sodium phosphate, and 11.1 mmol/L glucose. The solution was oxygenated by bubbling with 95% oxygen and 5% carbon dioxide to maintain a pH of 7.4.
The rate of the oxygen consumption was determined using a Hansatech Instruments (Norfolk, United Kingdom) Clark oxygen electrode. Carotid artery rings approximately 0.2 cm long were vigorously rubbed to remove the endothelial cells and were added to the water-jacketed chambers containing PSS at 37° C. The rates of oxygen consumption were measured before and after the addition of crude mixture of the BR oxidative degradation products (final concentration 1 mg/mL of PSS), CSFSAH (final dilution 1/30) or 4-methyl-3-vinylmaleimide (purified on HPLC, freeze-dried and then re-dissolved in PSS). […]

[3] = tested on: porcine carotid artery rings; assay: Isometric force measurement on porcine carotid artery rings
Description: Isometric force measurement were performed on porcine carotid artery rings to assess functional parameters during exposure to various compounds. The methods used were those used by J F Clark et al., J. Vasc. Res., 1995, 32. 24-30. KCl induced contraction is used as maximal isometric tension generation and results are reported as percentage of KCl maxima obtained for each carotid.

| intensity of HPLC peaks after exposure to sunlight [1] | heat stability [2] | 1H NMR analysis after sunlight exposure [1] | Structure (SMILES) | stimulation of oxygen consumption (in words) (porcine carotid artery) | effect of pre-treatment on tension development induced by ox-BR and CSF-SAH [3] |
| --- | --- | --- | --- | --- | --- |
| significantly decreased | relatively heat-stable |  | C=CC1=C(C)C(=O)NC1=O [4-methyl-3-vinylmaleimide] | stimulated oxygen consumption |  |
| significantly decreased |  | degradation to a number of products | C=CC1=C(C)C(=O)NC1=CC(N)=O [Box A, 4-methyl-5-oxo-3-vinyl-(1,5-dihydropyrrol-2-ylidene)acetamide] |  |  |
| significantly decreased |  | degradation to a number of products | C=CC1=C(C)C(=CC(N)=O)NC1=O [Box B, 3-methyl-5-oxo-4-vinyl-(1,5-dihydropyrrol-2-ylidene)acetamide] |  |  |
|  |  |  | CC(CCc1ccc(O)cc1)NCCc1ccc(O)c(O)c1 (centres unmarked) [dobutamine] |  | abrogated |
